US9993494B2, “Compositions and methods for treating fibrotic disease” (eFFECTOR Therapeutics, Inc., priority 2014, dated 2018)

Tested on: normal human lung fibroblasts
Test: Ribosomal profiling: translational efficiency in TGFβ-treated fibroblasts
Format: cell-based
Procedure: Ribosomal profiling allows for measurement of changes in transcription and translation on a genome-wide basis accompanying TGFβ-dependent transformation of fibroblasts to myofibroblasts. Ribosomal profiles of the TGFβ-treated fibroblasts from Example 1 (about 6×10^6 cells/10 cm plate) were prepared and analyzed for changes in translational efficiencies with respect to potential disease-associated cellular changes accompanying this TGFβ-induced transformation.
Briefly, cells were washed with cold PBS supplemented with cycloheximide and lysed with 1× mammalian cell lysis buffer for 10 minutes on ice. Lysates were clarified by centrifugation for 10 minutes at 14,000 rpm and supernatants were collected. Cell lysates were processed to generate ribosomal protected fragments and total mRNA according to the instructions included with the ARTseq Ribosome Profiling Kit (Illumina, San Diego, Calif.). Sequencing of total RNA (RNA) and of ribosome-protected fragments of RNA (RPF) was carried out using RNA-Seq methodology according to the manufacturer's instructions (Illumina). To analyze the ribosomal profiles, RNA-Seq reads were processed with tools from the FASTX-Toolkit (fastq_quality_trimmer, fastx_clipper and fastx_trimmer). Unprocessed and processed reads were evaluated for a variety of quality measures using FastQC, and processed reads were mapped to the human genome using TopHat (see, e.g., Trapnell et al., Bioinformatics 25:1105, 2009). Gene-by-gene assessment of the number of fragments strictly and uniquely mapping to the coding region of each gene was conducted using HTSeq-count, a component of the HTSeq package. […] Genes with low counts in either RPF or RNA were excluded from differential analyses. Pathway and network analyses of differential data were conducted using Ingenuity Pathway Analysis (IPA).

Substance: TGFβ
- Log2 TE EEF1A1 (ENSG00000156508, 5 replicates): 1.851
- change in translational profile of EEF1A1 caused by TGFβ (ENSG00000156508, Control vs. TGFβ): E (E = <1.5 to 2.5)
- Log2 TE NRG1 (ENSG00000157168, 5 replicates): 1.162
- change in translational profile of NRG1 caused by TGFβ (ENSG00000157168, Control vs. TGFβ): D (D = <1.0 to 1.5)
- change in translational profile of ADAMTS4 caused by TGFβ (ENSG00000158859, Control vs. TGFβ): D (D = <1.0 to 1.5)
- Log2 TE RPL8 (ENSG00000161016, 5 replicates): 1.353
- change in translational profile of RPL8 caused by TGFβ (ENSG00000161016, Control vs. TGFβ): E (E = <1.5 to 2.5)
- Log2 TE RPL26 (ENSG00000161970, 5 replicates): 1.655
- change in translational profile of RPL26 caused by TGFβ (ENSG00000161970, Control vs. TGFβ): E (E = <1.5 to 2.5)
- Log2 TE RPL29 (ENSG00000162244, 5 replicates): 1.589
- change in translational profile of RPL29 caused by TGFβ (ENSG00000162244, Control vs. TGFβ): E (E = <1.5 to 2.5)
- change in translational profile of CAMK2N1 caused by TGFβ (ENSG00000162545, Control vs. TGFβ): C (C = <−1.0 to −1.5)
- Log2 TE NFIA (ENSG00000162599, 5 replicates): −1.2934
- Log2 TE ARHGAP25 (ENSG00000163219, 5 replicates): 1.166
- change in translational profile of IGFBP7 caused by TGFβ (ENSG00000163453, Control vs. TGFβ): E (E = <1.5 to 2.5)
- Log2 TE RPL22L1 (ENSG00000163584, 5 replicates): 1.012
- change in translational profile of RPL22L1 caused by TGFβ (ENSG00000163584, Control vs. TGFβ): D (D = <1.0 to 1.5)
- Log2 TE PTX3 (ENSG00000163661, 5 replicates): −1.576
- Log2 TE RPL9 (ENSG00000163682, 5 replicates): 1.613
- change in translational profile of RPL9 caused by TGFβ (ENSG00000163682, Control vs. TGFβ): E (E = <1.5 to 2.5)
- Log2 TE TKT (ENSG00000163931, 5 replicates): 1.142
- Log2 TE GUCY1A3 (ENSG00000164116, 5 replicates): −1.932
- Log2 TE RHOBTB3 (ENSG00000164292, 5 replicates): −1.529
- change in translational profile of RHOBTB3 caused by TGFβ (ENSG00000164292, Control vs. TGFβ): B (B = <−1.5 to −2.5)
- Log2 TE TLR3 (ENSG00000164342, 5 replicates): −1.371
- Log2 TE RPS14 (ENSG00000164587, 5 replicates): 1.684
- change in translational profile of HCN1 caused by TGFβ (ENSG00000164588, Control vs. TGFβ): D (D = <1.0 to 1.5)
- Log2 TE WBSCR27 (ENSG00000165171, 5 replicates): 1.116
- change in translational profile of RPL36AL caused by TGFβ (ENSG00000165502, Control vs. TGFβ): D (D = <1.0 to 1.5)
- Log2 TE RPL27A (ENSG00000166441, 5 replicates): 2.09
- change in translational profile of RPL27A caused by TGFβ (ENSG00000166441, Control vs. TGFβ): F (F = >2.5)
- change in translational profile of RP11-382A20.3.1 caused by TGFβ (ENSG00000166503, Control vs. TGFβ): C (C = <−1.0 to −1.5)
- change in translational profile of ANKDD1A caused by TGFβ (ENSG00000166839, Control vs. TGFβ): C (C = <−1.0 to −1.5)
- Log2 TE RPL13 (ENSG00000167526, 5 replicates): 1.465
- change in translational profile of RPL13 caused by TGFβ (ENSG00000167526, Control vs. TGFβ): E (E = <1.5 to 2.5)
- Log2 TE EEF2 (ENSG00000167658, 5 replicates): 2.323
- change in translational profile of EEF2 caused by TGFβ (ENSG00000167658, Control vs. TGFβ): F (F = >2.5)
- Log2 TE RPSA (ENSG00000168028, 5 replicates): 1.359
- Log2 TE TET2 (ENSG00000168769, 5 replicates): 1.377
- Log2 TE ZNF608 (ENSG00000168916, 5 replicates): −1.59
- Log2 TE SLC25A6 (ENSG00000169100, 5 replicates): 1.909
- Log2 TE THBS3 (ENSG00000169231, 5 replicates): 1.188
- Log2 TE CA5B (ENSG00000169239, 5 replicates): −1.791
- change in translational profile of CA5B caused by TGFβ (ENSG00000169239, Control vs. TGFβ): B (B = <−1.5 to −2.5)
- Log2 TE KIAA1024 (ENSG00000169330, 5 replicates): 2.216
- change in translational profile of KIAA1024 caused by TGFβ (ENSG00000169330, Control vs. TGFβ): F (F = >2.5)
- Log2 TE CRTAP (ENSG00000170275, 5 replicates): 1.022
- Log2 TE TMC7 (ENSG00000170537, 5 replicates): 1.745
- Log2 TE MURC (ENSG00000170681, 5 replicates): 3.678
- change in translational profile of MURC caused by TGFβ (ENSG00000170681, Control vs. TGFβ): F (F = >2.5)
- change in translational profile of HTRA3 caused by TGFβ (ENSG00000170801, Control vs. TGFβ): C (C = <−1.0 to −1.5)
- Log2 TE RPS9 (ENSG00000170889, 5 replicates): 1.6139
- Log2 TE PDGFD (ENSG00000170962, 5 replicates): −1.029
- Log2 TE PDE7B (ENSG00000171408, 5 replicates): −2.782
- change in translational profile of PDE7B caused by TGFβ (ENSG00000171408, Control vs. TGFβ): A (A = <−2.5)
- Log2 TE ZNF581 (ENSG00000171425, 5 replicates): 1.45
- Log2 TE LPAR3 (ENSG00000171517, 5 replicates): −2.387
- change in translational profile of LPAR3 caused by TGFβ (ENSG00000171517, Control vs. TGFβ): A (A = <−2.5)
- Log2 TE CTPS (ENSG00000171793, 5 replicates): 1.08
